{"source": "patent US20250332112A1", "about": "“IONIZABLE CATIONIC LIPIDS FOR LIPID NANOPARTICLES” (GENEVANT SCIENCES GMBH, priority 2022, published 2025)", "key": {"[1]": {"system": "EGFP expression in the liver", "assay": "EGFP expression in liver after intravenous EGFP mRNA LNP (ELISA)", "conditions": "0.5 mg/kg IV, 24 h post-IV administration, BALB/c mice (n = 4)", "description": "LNP formulations encapsulating enhanced green fluorescent protein mRNA were injected intravenously at 0.5 mg/kg to female BALB/c mice (6-8 weeks old). On day of injection, the LNP stocks were filtered and diluted to the required dosing concentration with phosphate buffered saline. At 24 hours post-administration, animals were anaesthetized with a lethal dosage of ketamine/xylazine. Liver samples (left lateral lobe) were collected, weighed, and flash frozen in liquid nitrogen. Liver samples were stored in FastPrep® tubes at −80° C. until analyzed for EGFP expression.\nLiver homogenates were prepared in cell extraction buffer, diluted, and analyzed for EGFP protein levels using ELISA, according to manufacturer's instructions (Abcam, GFP ELISA Kit)."}, "[2]": {"assay": "Parent ionizable lipid remaining in liver at 24 h after EGFP mRNA LNP (LC-MS)", "assay_type": "in vivo", "conditions": "24 h after IV 0.5 mg/kg EGFP mRNA LNP, female BALB/c mice (n = 4)"}, "[3]": {"system": "luciferase activity in the liver", "assay": "Luciferase activity in liver after intravenous luciferase mRNA LNP", "assay_type": "in vivo", "conditions": "0.5 mg/kg IV, 6 h post-IV administration, BALB/c mice (n = 4)"}, "[4]": {"system": "human OTC expression in the liver", "assay": "Dose response of human OTC mRNA LNP, OTC expression in liver (ELISA)", "assay_type": "in vivo", "conditions": "24 h, male C57BL/6 mice (n = 4)", "procedure": "LNP formulations encapsulating ornithine transcarbamylase mRNA were injected intravenously at the specified dose levels to male C57BL/6 mice (6-8 weeks old).\nLiver homogenates were prepared with PBS, Halt protease inhibitor cocktail and FastPrep homogenization, standardized to 2 mg/mL protein with a BCA Protein Assay, and then analyzed by ELISA. Briefly, samples were diluted with PBS and plated on Nunc Maxisorp plates. A standard curve using human […] protein was prepared from the naïve animal controls (vehicle). After 2 h incubation the plates were washed, and the primary antibody was added. After 1 h incubation, the secondary antibody was added and incubated for another hour. After washing, TMB Substrate was added for color development and the reaction was stopped with 2 N sulfuric acid. The plate was read at 450/570 OD.\nAt 24 h post-dose, the novel lipid formulations reported dose-dependent increases in human OTC expression in the liver (Table 15)."}}}
{"smiles": "CCCCC/C=C\\CCCC(CCC/C=C\\CCCCC)C(CCC/C=C\\CCCCC)OC(=O)CCCCN(C)C", "note": "(stereo not drawn) [Compound 13-B43, reference compound]", "values": [{"measurement": "EGFP", "setting": "[1]; Table 24", "result": "3.75E+07", "unit": "pg/g liver"}, {"measurement": "EGFP", "setting": "[1]; Table 25", "result": "9.74E+04", "unit": "pg/g liver"}, {"measurement": "EGFP", "setting": "[1]; Table 26", "result": "5.23E+07", "unit": "pg/g liver"}, {"measurement": "EGFP", "setting": "[1]; Table 27", "result": "6.46E+07", "unit": "pg/g liver"}, {"measurement": "Parent ionizable lipid remaining in liver, Average", "setting": "[2]; Table 28", "result": 38.48, "unit": "nmol/g liver"}, {"measurement": "Parent ionizable lipid remaining in liver, Average", "setting": "[2]; Table 29", "result": 29.77, "unit": "nmol/g liver"}, {"measurement": "Parent ionizable lipid remaining in liver, Average", "setting": "[2]; Table 30", "result": 50.86, "unit": "nmol/g liver"}, {"measurement": "Parent ionizable lipid remaining in liver, Average", "setting": "[2]; Table 31", "result": 23.9, "unit": "nmol/g liver"}, {"measurement": "Luc Activity", "setting": "[3]; Table 8", "result": "5.94E+07", "unit": "pg/g liver"}, {"measurement": "Luc Activity", "setting": "[3]; Table 9", "result": "7.29E+07", "unit": "pg/g liver"}, {"measurement": "Luc Activity", "setting": "[3]; Table 10", "result": "7.04E+07", "unit": "pg/g liver"}, {"measurement": "Luc Activity", "setting": "[3]; Table 11", "result": "6.86E+07", "unit": "pg/g liver"}, {"measurement": "Luc Activity", "setting": "[3]; Table 12", "result": "7.83E+07", "unit": "pg/g liver"}, {"measurement": "Luc Activity", "setting": "[3]; Table 13", "result": "7.60E+07", "unit": "pg/g liver"}, {"measurement": "Luc Activity", "setting": "[3]; Table 14", "result": "6.02E+07", "unit": "pg/g liver"}, {"measurement": "Human OTC expression", "setting": "[4]; 0.3 mg/kg IV", "result": "908 ng hOTC/mg protein in liver"}, {"measurement": "Human OTC expression", "setting": "[4]; 1 mg/kg IV", "result": "6651 ng hOTC/mg protein in liver"}, {"measurement": "Human OTC expression", "setting": "[4]; 3 mg/kg IV", "result": "12413 ng hOTC/mg protein in liver"}]}
